Data from patent US6352958B1, “Cycloimido-substituted benzofused heterocyclic herbicides” (FMC Corporation, priority 1997, dated 2002).

Legend:
Format in all cases: in vivo
[1] = test system: velvetleaf (Abutilon theophrasti); assay: Postemergence herbicidal activity, velvetleaf; settings: rate of application 0.3 Kg/Ha, rated after 12-17 days
[2] = test system: common chickweed (Stellaria media); assay: Preemergence herbicidal activity, chickweed; settings: Rate of Application 0.3 Kg/Ha, examined after 12-17 days
[3] = test system: morningglory (Ipomea lacunosa or Ipomea hederacea); assay: Postemergence herbicidal activity, morningglory; settings: rate of application 0.3 Kg/Ha, rated after 12-17 days
[4] = test system: soybean (Glycine max var. Winchester); assay: Preemergence herbicidal activity, soybean; settings: Rate of Application 0.3 Kg/Ha, examined after 12-17 days
[5] = test system: blackgrass (Aloepecurus myosuroides); assay: Preemergence herbicidal activity, blackgrass; settings: Rate of Application 0.3 Kg/Ha, examined after 12-17 days
[6] = test system: green foxtail (Setaria viridis); assay: Preemergence herbicidal activity, green foxtail; settings: Rate of Application 0.3 Kg/Ha, examined after 12-17 days
[7] = test system: field corn (Zea mays var. Pioneer 3732); assay: Postemergence herbicidal activity, corn; settings: rate of application 0.3 Kg/Ha, rated after 12-17 days
[8] = test system: common cocklebur (Xanthium strumarium L.); assay: Preemergence herbicidal activity, cocklebur; settings: Rate of Application 0.3 Kg/Ha, examined after 12-17 days
[9] = test system: morningglory (Ipomea lacunosa or Ipomea hederacea); assay: Preemergence herbicidal activity, morningglory; settings: Rate of Application 0.3 Kg/Ha, examined after 12-17 days
[10] = test system: Johnsongrass (Sorghum halepense); assay: Preemergence herbicidal activity, johnsongrass; settings: Rate of Application 0.3 Kg/Ha, examined after 12-17 days
[11] = test system: velvetleaf (Abutilon theophrasti); assay: Preemergence herbicidal activity, velvetleaf; settings: Rate of Application 0.3 Kg/Ha, examined after 12-17 days
[12] = test system: field corn (Zea mays var. Pioneer 3732); assay: Preemergence herbicidal activity, corn; settings: Rate of Application 0.3 Kg/Ha, examined after 12-17 days
[13] = test system: Johnsongrass (Sorghum halepense); assay: Postemergence herbicidal activity, johnsongrass; settings: rate of application 0.3 Kg/Ha, rated after 12-17 days
[14] = test system: soybean (Glycine max var. Winchester); assay: Postemergence herbicidal activity, soybean; settings: rate of application 0.3 Kg/Ha, rated after 12-17 days
[15] = test system: green foxtail (Setaria viridis); assay: Postemergence herbicidal activity, green foxtail; settings: rate of application 0.3 Kg/Ha, rated after 12-17 days
[16] = test system: wheat (Triticum aestivum var. Lew); assay: Postemergence herbicidal activity, wheat; settings: rate of application 0.3 Kg/Ha, rated after 12-17 days
[17] = test system: wheat (Triticum aestivum var. Lew); assay: Preemergence herbicidal activity, wheat; settings: Rate of Application 0.3 Kg/Ha, examined after 12-17 days
[18] = test system: blackgrass (Aloepecurus myosuroides); assay: Postemergence herbicidal activity, blackgrass; settings: rate of application 0.3 Kg/Ha, rated after 12-17 days
Description: The benzofused heterocyclic compounds of this invention were tested for pre- and postemergence herbicidal activity using a variety of crops and weeds. The test plants included soybean (Glycine max var. Winchester), field corn (Zea mays var. Pioneer 3732), wheat (Triticum aestivum var. Lew), morningglory (Ipomea lacunosa or Ipomea hederacea), velvetleaf (Abutilon theophrasti), green foxtail (Setaria viridis), Johnsongrass (Sorghum halepense), blackgrass (Aloepecurus myosuroides), common chickweed (Stellaria media), and common cocklebur (Xanthium strumarium L.).
For preemergence testing, two disposable fiber flats (8 cm×15 cm×25 cm) for each rate of application of each candidate herbicide were filled to an approximate depth of 6.5 cm with steam-sterilized sandy loam soil. The soil was leveled and impressed with a template to provide five evenly spaced furrows 13 cm long and 0.5 cm deep in each flat. Seeds of soybean, wheat, corn, green foxtail, and johnsongrass were planted in the furrows of the first flat, and seeds of velvetleaf, morningglory, common chickweed, cocklebur, and blackgrass were planted in the furrows of the second flat. The five-row template was employed to firmly press the seeds into place. A topping soil of equal portions of sand and sandy loam soil was placed uniformly on top of each flat to a depth of approximately 0.5 cm. Flats for postemergence testing were prepared in the same manner except that they were planted 9-14 days prior to the preemergence flats and were placed in a greenhouse and watered, thus allowing the seeds to germinate and the foliage to develop.
In both pre- and postemergence tests, a stock solution of the candidate herbicide was prepared by dissolving 0.27 g of the compound in 20 mL of water/acetone (50/50) containing 0.5% v/v sorbitan monolaurate. For an application rate of 3000 g/ha of herbicide a 10 mL portion of the stock solution was diluted with water/acetone (50/50) to 45 mL.
The preemergence flats were initially subjected to a light water spray. The four flats were placed two by two along a conveyor belt (i.e., the two preemergence followed by the two postemergence flats). The conveyor belt fed under a spray nozzle mounted about ten inches above the post-emergent foliage. The preemergent flats were elevated on the belt so that the soil surface was at the same level below the spray nozzle as the foliage canopy of the postemergent plants. The spray of herbicidal solution was commenced and once stabilized, the flats were passed under the spray at a speed to receive a coverage equivalent of 100 L/ha. At this coverage the application rates are those shown in the above table for the individual herbicidal solutions. The preemergence flats were watered immediately thereafter, placed in the greenhouse and watered regularly at the soil surface. The postemergence flats were immediately placed in the green-house and not watered until 24 hours after treatment with the test solution. Thereafter they were regularly watered at ground level. After 12-17 days the plants were examined and the phytotoxicity data were recorded.
Phytotoxicity data were taken as percent control. Percent control was determined by a method similar to the 0 to 100 rating system disclosed in “Research Methods in Weed Science,” 2nd ed., B. Truelove, Ed.; Southern Weed Science Society; Auburn University, Auburn, Ala., 1977.

[19] = test system: common cocklebur (Xanthium strumarium L.); assay: Postemergence herbicidal activity, cocklebur; settings: rate of application 0.3 Kg/Ha, rated after 12-17 days

SMILES | Postemergence herbicidal activity (% control) ABUTH [1] [%] | PREEMERGENCE HERBICIDAL ACTIVITY (% CONTROL) STEME [2] [%] | Postemergence herbicidal activity (% control) IPOSS [3] [%] | PREEMERGENCE HERBICIDAL ACTIVITY (% CONTROL) SOY [4] [%] | PREEMERGENCE HERBICIDAL ACTIVITY (% CONTROL) ALOMY [5] [%] | PREEMERGENCE HERBICIDAL ACTIVITY (% CONTROL) SETVI [6] [%] | Postemergence herbicidal activity (% control) CRN [7] [%] | PREEMERGENCE HERBICIDAL ACTIVITY (% CONTROL) XANPE [8] [%] | PREEMERGENCE HERBICIDAL ACTIVITY (% CONTROL) IPOSS [9] [%] | PREEMERGENCE HERBICIDAL ACTIVITY (% CONTROL) SORHA [10] [%] | PREEMERGENCE HERBICIDAL ACTIVITY (% CONTROL) ABUTH [11] [%] | PREEMERGENCE HERBICIDAL ACTIVITY (% CONTROL) CRN [12] [%] | Postemergence herbicidal activity (% control) SORHA [13] [%] | Postemergence herbicidal activity (% control) SOY [14] [%] | Postemergence herbicidal activity (% control) SETVI [15] [%] | Postemergence herbicidal activity (% control) WHT [16] [%] | PREEMERGENCE HERBICIDAL ACTIVITY (% CONTROL) WHT [17] [%] | Postemergence herbicidal activity (% control) ALOMY [18] [%] | Postemergence herbicidal activity (% control) XANPE [19] [%]
Cc1nc2c(-n3c(=O)cc(C(F)(F)F)n(C)c3=O)c(F)cc(Cl)c2[nH]1 [Compound 363] | 100 | 100 | 100 | 100 | 100 | 100 | 100 | 100 | 100 | 100 | 100 | 100 | 100 | 100 | 100 | 100 | 100 | 100 | 100
Cn1c(C(F)(F)F)cc(=O)n(-c2ccc(Cl)c3cc(CO)oc23)c1=O [Compound 238] | 100 | 60 | 100 | 100 | 50 | 90 | 70 | 80 | 100 | 90 | 100 | 70 | 70 | 80 | 80 | 30 | 60 | 40 | 100
Cn1c(C(F)(F)F)cc(=O)n(-c2c(F)cc(Cl)c3oc(NS(C)(=O)=O)nc23)c1=O [Compound 42] | 90 | 30 | 60 | 0 | 50 | 30 | 60 | 20 | 60 | 0 | 100 | 0 | 20 | 65 | 100 | 30 | 10 | 40 | 50
Cn1c(C(F)(F)F)cc(=O)n(-c2c(F)cc(Cl)c3nc(COc4ccccc4)[nH]c23)c1=O [Compound 378] | 100 | 100 | 90 | 90 | 80 | 100 | 90 | 100 | 100 | 95 | 100 | 90 | 100 | 90 | 100 | 40 | 70 | 80 | 100
CC(c1ccccc1)c1nc2c(Cl)cc(F)c(-n3c(=O)cc(C(F)(F)F)n(C)c3=O)c2[nH]1 (stereo not shown) [Compound 377] | 100 |  | 100 | 100 | 100 | 100 | 100 | 100 | 100 | 100 | 100 | 90 | 100 | 95 | 100 | 80 | 70 | 100 | 100
Cn1c(C(F)(F)F)cc(=O)n(-c2c(F)cc(Cl)c3nc(CCCc4ccccc4)[nH]c23)c1=O [Compound 380] | 100 |  | 100 | 80 | 90 | 100 | 95 | 80 | 100 | 70 | 100 | 20 | 80 | 95 | 100 | 30 | 35 | 70 | 100
CC(=O)OC(c1ccccc1)c1nc2c(-n3c(=O)cc(C(F)(F)F)n(C)c3=O)c(F)cc(Br)c2o1 (stereo not shown) [Compound 103] | 100 |  | 80 | 50 | 90 | 100 | 80 | 70 | 100 | 70 | 100 | 80 | 60 | 90 | 100 | 50 | 50 | 70 | 80
